Laboratory results reported in the NIST ThermoML archive (doi:10.1016/j.jct.2018.02.022).
Where “and” joins values, the source holds several entries; their conditions need not be identical. Identical values can stand only once.

Assay: xn = mol fraction of the nth substance listed
Details: 293.15 K, 92.3 kPa, Liquid; for viscosity: Concentric cylinders viscometry; for speed of sound: Frequency=3 MHz, Single path-length method; for mass density: Vibrating tube method

CCO [ethanol] + O
Details	mass density	speed of sound [m/s]	viscosity [mPa·s]
x1 = 0.0024	997.039 kg/m3	1487.7	–
x1 = 0.0201	989.54 kg/m3	–	1.247
x1 = 0.0202	989.382 kg/m3	1522.5	–
x1 = 0.0295	985.977 kg/m3	1540	–
x1 = 0.0366	983.574 kg/m3	1553	–
x1 = 0.0408	982.27 kg/m3	–	1.529
x1 = 0.0497	979.54 kg/m3	–	1.648
x1 = 0.0513	978.913 kg/m3	1578	–
x1 = 0.06	976.51 kg/m3 and 976.452 kg/m3	1590.8	1.821
x1 = 0.0707	973.538 kg/m3	1604.2	–
x1 = 0.0796	971.24 kg/m3	–	2.045
x1 = 0.0801	971.049 kg/m3	1613.8	–
x1 = 0.0904	968.313 kg/m3	1621.5	–
x1 = 0.0997	965.87 kg/m3	1625.7	–
x1 = 0.1004	963.75 kg/m3	–	2.311
x1 = 0.1294	957.918 kg/m3	1623.8	–
x1 = 0.1497	952.184 kg/m3	1611.9	–
x1 = 0.1499	951.92 kg/m3	–	2.72
x1 = 0.1984	935.19 kg/m3	–	2.857
x1 = 0.2008	937.088 kg/m3	1566.6	–
x1 = 0.2499	922.7 kg/m3	–	2.864
x1 = 0.2503	922.612 kg/m3	1520.2	–
x1 = 0.2998	908.897 kg/m3	1478.2	–
x1 = 0.3016	908.77 kg/m3	–	2.793
x1 = 0.3499	896.37 kg/m3	–	2.681
x1 = 0.3507	895.841 kg/m3	1440.4	–
x1 = 0.399	884.54 kg/m3	–	2.55
x1 = 0.3992	884.433 kg/m3	1408.9	–
x1 = 0.4495	873.57 kg/m3	–	2.405
x1 = 0.4514	873.258 kg/m3	1379	–
x1 = 0.4989	864.28 kg/m3	–	2.291
x1 = 0.5002	863.248 kg/m3	1353.5	–
x1 = 0.5494	854.117 kg/m3	1330.4	–
x1 = 0.5495	854.95 kg/m3	–	2.177
x1 = 0.6018	845.002 kg/m3	1307.8	–
x1 = 0.6067	844.7 kg/m3	–	1.997
x1 = 0.6503	837.27 kg/m3 and 837.196 kg/m3	1288.5	1.895
x1 = 0.6956	830.42 kg/m3	–	1.788
x1 = 0.7006	829.434 kg/m3	1269.1	–
x1 = 0.7355	824.262 kg/m3	1256	–
x1 = 0.75	822.4 kg/m3	–	1.68
x1 = 0.7843	817.86 kg/m3	–	1.612
x1 = 0.7965	815.831 kg/m3	1234.1	–
x1 = 0.8433	809.567 kg/m3	1217.4	–
x1 = 0.8475	809.97 kg/m3	–	1.518
x1 = 0.8864	804.22 kg/m3	–	1.42
x1 = 0.892	803.132 kg/m3	1199.7	–
x1 = 0.9093	800.938 kg/m3	1193.5	–
x1 = 0.9207	799.51 kg/m3	1189.5	–
x1 = 0.929	798.49 kg/m3	–	1.341
x1 = 0.9307	798.225 kg/m3	1185.8	–
x1 = 0.9398	797.133 kg/m3	1182.6	–
x1 = 0.9483	796.043 kg/m3	1179.4	–
x1 = 0.9603	794.596 kg/m3	1175.3	–
x1 = 0.9702	793.374 kg/m3	1171.7	–
x1 = 0.9801	792.038 kg/m3	1168.5	–
x1 = 0.9895	791.076 kg/m3	1165	–
x1 = 1	789.547 kg/m3	1160.7	1.202
